The source of these data is patent US9642835B2, “Modulators of GTPase and use in relevant treatment” (STC.UNM, priority 2010, dated 2017).

Read-outs that look alike come from different tables or passages of the source. A value given as a limit tells only on which side of the number the result lay.

Assay [1] has as its system Cdc42, Rab2, Rab7, activated Rac1Q61L, Rac1, and H-Ras. In words: Multiplexed primary screen, fluorescent GTP binding. Conditions: 10 μM compound. As for the experimental part:
Multiplex screening was performed by measuring GTP-binding activities of six GTPases (Cdc42, Rab2, Rab7, activated Rac1Q61L, Rac1, and H-Ras) simultaneously using special glutathione (GSH) bead sets having varied fluorescence intensities at a fixed wavelength^38. Individual GST-GTPase chimeras were tested against approximately 200,000 small molecules from the Molecular Libraries Small Molecule Repository (MLSMR). Results of fluorescent GTP-binding from the entire primary screen are summarized in the open access Pubchem database as required for projects conducted under the Roadmap Initiative (AID 757-761, 764). […] In total 1877 compounds/194,635 were identified as activators or inhibitors in the primary screen. On the order of 100-500 compounds were found active per GTPase target, enabling an unprecedented, comprehensive evaluation of small molecules active against various Ras-related GTPase family members. Here we report one compound active specifically on Cdc42 and structure activity relationships determined through chemical synthesis.
Multiplex analysis of small GTPases, were performed as we have described previously {Surviladze, 2009}. […] Flow cytometric light scatter and fluorescence emission at 530+/−20 nm (FL1) and 665+/−10 nm (FL8) were collected on a Cyan ADP flow cytometer (Beckman Coulter, Fullerton, Calif.). The resulting time-dependent data (one file per plate) were analyzed using IDLQuery software to determine the compound activity in each well. […] Gating based on FL8 emission distinguishes the beads coated with different proteins, and the median fluorescence per bead population was calculated. […]
For detection of GTP binding to small G-proteins we used bead-based multiplex flow cytometry assay {Surviladze, 2009}. […] Six individual GST-GTPases representative of Rho, Ras and Rab branches of the Ras-related GTPase family (Cdc42 wt, Rac1 wt, Rac1Q61L, Rab2 wt, Rab7 wt, and H-Ras wt) were first bound to GSH-beads of a particular fluorescence intensity. […]

Assay [2] deals with Cdc42 ACT (Cdc42Q61L) (Homo sapiens, UniProt P60953, Q61L). In words: Bead-based flow cytometry dose response, BODIPY-FL-GTP binding. As for the experimental part: (§1) Bead sets for multiplex assays were custom synthesized by Duke Scientific Corp (Fremont, Calif.), but may now be ordered from Thermo/Fisher. […] Negative controls, contained the bead mixture with fluorescent GTP, 0.5 mM unlabeled GTP as a competitor, and 1% DMSO. […] The resulting time-dependent data (one file per plate) were analyzed using IDLQuery software to determine the compound activity in each well. Gating based on forward scatter (FS) and side scatter (SS) parameters was used to identify singlet bead populations. Gating based on FL8 emission distinguishes the beads coated with different proteins, and the median fluorescence per bead population was calculated. […] Baselines were set to 100% based on measurements from the 1% DMSO containing positive controls as further described in PubChem. {PubChem #72}
Chain of Cdc42 ACT (Cdc42Q61L) (P60953 whole entry Q61L): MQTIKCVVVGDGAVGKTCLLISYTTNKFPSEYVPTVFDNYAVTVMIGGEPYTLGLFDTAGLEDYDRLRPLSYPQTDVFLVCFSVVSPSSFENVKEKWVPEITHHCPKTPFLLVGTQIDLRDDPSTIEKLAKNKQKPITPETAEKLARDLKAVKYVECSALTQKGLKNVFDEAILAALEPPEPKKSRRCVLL
(§2) Briefly, compounds were serially diluted 1:3 a total of eight times from a starting concentration of 10 mM giving a 9-point dilution series in DMSO. The final concentrations of inhibitors in the assay ranged from 10 nM to 100 μM. Dose-response analyses were examined in the presence of NP-HPS buffer containing: a) 1 mM EDTA; or b) 1 mM MgCl2. […] For assays with EDTA we used one multiplex (Rab7 wt, Rab2 wt, H-Ras wt, H-RasG12V, Cdc42 wt, and Cdc42Q61L) and 3 single-plexes (for Rac1 wt, Rac1 Q61L and GST-GFP).
(§3) GTPase activators were identified on the basis of an increase in fluorescent GTP-binding.
(§4) In experiments including magnesium, six GST-GTPases were assayed simultaneously in a single multiplex (Rac1 wt, Rac1Q61L, RhoA wt, RhoAL63, Cdc42 wt and Cdc42Q61L) and 1 nM BODIPY-FL-GTP binding was measured in the presence or absence of the serial drug dilution series. Each dose response series was run in duplicate.
(A flow cytometer gives signals particle by particle.)

Assay [3] addresses T1, Cdc42 WT (Homo sapiens, UniProt P60953).
T1 construct: purchased Cytoskeleton
The assay is described as above. The following applies: for EC50: read-out: Cdc42 WT EC50; for Emax: read-out: Cdc42 WT Efficacy. As for the experimental part:
as §1, §2, §3, §4

The mark [4] stands for this setting: Table 6, R3 analogs, read-out: Cdc42 ACT EC50.
[5] abbreviates: Table 5, R2 analogs, read-out: Cdc42 ACT EC50.

T1 sequence (P60953 whole entry): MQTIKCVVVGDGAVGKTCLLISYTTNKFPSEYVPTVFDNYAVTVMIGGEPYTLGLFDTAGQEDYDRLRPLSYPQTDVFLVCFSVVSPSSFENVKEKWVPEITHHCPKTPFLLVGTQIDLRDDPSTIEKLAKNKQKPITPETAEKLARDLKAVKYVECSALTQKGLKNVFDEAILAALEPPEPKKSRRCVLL

Take `O=C(O)c1cccnc1SCCc1ccccc1` [CID888706]: the “Outcome of primary screening” value in assay [1] is “activator”.
As to `NS(=O)(=O)c1ccc(N2N=C(c3ccccc3)CC2c2ccccc2)cc1` (stereo not shown) [CID 2837695], the EC50 in assay [2] (setting [4]) turned out to be 16.8 µM. Further, in assay [3] (Table 6, R3 analogs), the 50% effective concentration (EC50) came out at 31.6 µM and the Emax was 56%.
With `COc1ccc(C2CC(c3ccccc3)=NN2c2ccc(S(N)(=O)=O)cc2)cc1OC` (stereo not shown) [CID 2971684], the EC50 in assay [2] worked out at 6.1 µM; in assay [3] (Table 6, R3 analogs), 5.7 µM. In addition, the Emax in assay [3] (Table 6, R3 analogs) is 75%.
Consider `NS(=O)(=O)c1ccc(N2N=C(c3ccccc3)CC2c2cccc(F)c2)cc1` (stereo not shown) [CID 12005853], for which the EC50 amounted to 9.6 µM in assay [2] (setting [4]) and 4.9 µM in assay [3] (Table 6, R3 analogs). In addition, the Emax in assay [3] (Table 6, R3 analogs) was 71%.
In the same order, the values of `NS(=O)(=O)c1ccc(N2N=C(c3ccccc3)CC2c2ccc(Cl)cc2)cc1` (stereo not shown) [CID 13927311] are 3.6 µM, 2.8 µM and 69%.
On the same counts, the results for `NS(=O)(=O)c1ccc(N2N=C(c3ccccc3)CC2c2ccc(Br)cc2)cc1` (stereo not shown) [CID 13927312, 4-[3-(4-bromophenyl)-5-phenyl-3,4-dihydropyrazol-2-yl]benzene sulfonamide] are 1.7 µM, 1.1 µM and 56%.
For `COc1ccc(C2CC(C)=NN2c2ccc(S(N)(=O)=O)cc2)cc1` (stereo not shown) [CID 14870296], in assay [2] (setting [5]), the half-maximal effective concentration (EC50) was over 100 µM. Besides, in assay [3] (Table 5, R2 analogs), the 50% effective concentration (EC50) is over 100 µM and the Emax is 17%.
For the compound `COc1ccc(C2=NN(c3ccc(S(N)(=O)=O)cc3)C(c3ccc(OC)cc3)C2)cc1` (stereo not shown) [CID 15201811], the 50% effective concentration (EC50) in assay [2] (setting [5]) turned out to be 2.5 µM; in assay [3] (Table 5, R2 analogs) it was 2.6 µM. The Emax in assay [3] (Table 5, R2 analogs) was 38%.
For the compound `COc1ccccc1C1CC(c2ccccc2)=NN1c1ccc(S(N)(=O)=O)cc1` (stereo not shown) [CID 42628035], the half-maximal effective concentration (EC50) in assay [2] (setting [4]) was 78.9 µM. Also, in assay [3] (Table 6, R3 analogs), the concentration for a half-maximal effect (EC50) is 22.5 µM and the Emax worked out at 45%.
Regarding `COc1ccc(C2CC(c3cccc(OC)c3)=NN2c2ccc(S(N)(=O)=O)cc2)cc1` (stereo not shown) [CID 44143698, 4-[5-(3-methoxyphenyl)-3-(4-methoxyphenyl)-3,4-dihydropyrazol-2-yl]benzenesulfonamide], the half-maximal effective concentration (EC50) in assay [2] (setting [5]) came to 1.6 µM. In addition, in assay [3] (Table 5, R2 analogs), the EC50 came out at 1.5 µM and the Emax was determined as 50%.
`COc1cccc(C2CC(c3ccccc3)=NN2c2ccc(S(N)(=O)=O)cc2)c1` (stereo not shown) [CID 44143701]: in assay [2] (setting [4]), the concentration for a half-maximal effect (EC50) was 4.3 µM. Moreover, in assay [3] (Table 6, R3 analogs), the concentration for a half-maximal effect (EC50) turned out to be 4.8 µM and the Emax was 53%.
On to `COc1ccc(C2CC(c3ccccc3OC)=NN2c2ccc(S(N)(=O)=O)cc2)cc1` (stereo not shown) [CID 44143702], for which the EC50 in assay [2] (setting [5]) was 5.5 µM. In addition, in assay [3] (Table 5, R2 analogs), the “Cdc42 WT Efficacy” value came to 59%, the EC50 is 6 µM and the Emax is 59%.
Turning to `NS(=O)(=O)c1ccc(N2N=C(c3ccccc3)CC2c2cccc(Br)c2)cc1` (stereo not shown) [CID 44143703], the half-maximal effective concentration (EC50) in assay [2] (setting [4]) was 3.7 µM. In addition, in assay [3] (Table 6, R3 analogs), the EC50 amounted to 3.3 µM and the Emax came out at 55%.
As for `Cc1ccccc1C1CC(c2ccccc2)=NN1c1ccc(S(N)(=O)=O)cc1` (stereo not shown) [CID 44143704], the EC50 in assay [2] (setting [4]) is 13.6 µM. For the same compound, in assay [3] (Table 6, R3 analogs), the half-maximal effective concentration (EC50) amounted to 16.6 µM and the Emax is 55%.
As to `COc1ccc(C2CC(c3cccs3)=NN2c2ccc(S(N)(=O)=O)cc2)cc1` (stereo not shown) [CID 44143712], the concentration giving a half-maximal response (EC50) in assay [2] stood at 4 µM; in assay [3] (Table 5, R2 analogs) it was 2.9 µM. Besides, the Emax in assay [3] (Table 5, R2 analogs) stood at 57%.
Regarding `COc1ccc(C2CC(c3ccsc3)=NN2c2ccc(S(N)(=O)=O)cc2)cc1` (stereo not shown) [CID 44143713], in assay [2] (setting [5]), the EC50 stood at 7.3 µM. Besides, in assay [3] (Table 5, R2 analogs), the EC50 came out at 7.3 µM and the Emax was 47%.
For the compound `NS(=O)(=O)c1ccc(N2N=C(c3ccccc3)CC2c2cccc(Cl)c2)cc1` (stereo not shown) [CID 44193696], the half-maximal effective concentration (EC50) in assay [2] (setting [4]) amounted to 3.6 µM; in assay [3] (Table 6, R3 analogs), 3.3 µM. For the same compound, the Emax in assay [3] (Table 6, R3 analogs) was found to be 64%.
On the same counts, the results for `NS(=O)(=O)c1ccc(N2N=C(c3ccccc3)CC2c2ccccc2Cl)cc1` (stereo not shown) [CID 44193697] are 7.4 µM, 7.2 µM and 39%.
With `COc1ccc(C2CC(C(C)(C)C)=NN2c2ccc(S(N)(=O)=O)cc2)cc1` (stereo not shown) [CID 44193701], the concentration giving a half-maximal response (EC50) in assay [2] (setting [5]) is over 100 µM; in assay [3] (Table 5, R2 analogs), over 100 µM. In assay [3] (Table 5, R2 analogs), the Emax was 33%.
Turning to `NS(=O)(=O)c1ccc(N2N=C(c3ccccc3)CC2c2ccccc2Br)cc1` (stereo not shown) [CID 44216862], the EC50 is over 100 µM in assay [2] (setting [4]) and over 100 µM in assay [3] (Table 6, R3 analogs).

The term EC50 denotes the concentration needed to bring the measured effect to its halfway point.
